Where no end group is shown, it is not given here.

Usually IC50 stands for the concentration needed to halve the response being measured. Read a low IC50 as greater potency. The term Kd denotes the concentration at which binding is half-saturated. A high value points to weaker binding.

For one test, the system named is 22Rv.1 cells. The experiment in a line: Clonogenic assay. It counts as cell-based. The conditions noted are these: neomycin selection, colonies quantified; mean ± SEM of at least three independent experiments. An excerpt:
Figure 5 An N-terminal unfolded fragment of the Bag-1 peptide is sufficient to reduce tumor cell growth. A. Schematic diagram of the Bag-1 peptide and its deletion mutants. The ubiquitin-like domain is represented in blue and the BAG domain in red. The numbers refer to the amino acid positions of the different domains. The amino acid residues are numbered following the numbering for Bag-1L. B. Prediction of the secondary structure of the Bag-1 peptide, showing an N-terminal β-hairpin from the ubiquitin-like domain (blue) and a C-terminal α-helix from the BAG domain (red). C. Normalized circular dichroism spectra of the Bag-1 peptides. 30 µM of the Bag-1 peptide were measured in 20 mM KHPO4 buffer, pH 6.8 (black line). Its α-helical content was estimated to be approximately 25% by deconvolution of the spectra (red line). 12 µM of the N-term peptide (green line) and 11 µM of C-term (blue line) were measured under the same conditions. D. ^1H^15N-HSQC NMR spectrum of ^15N-labeled Bag-1 peptide (202–269) in 20 mm KHPO4 buffer, pH 6.8, at 23°C. […] The Hδ and Hε side chain signals of asparagine and glutamine are connected by thin lines. E. The N-terminal region of the Bag-1 peptide is important for GRP78 binding. 400 µg of 22Rv.1 cell lysate were incubated with glutathione-agarose beads carrying 15 µg GST-N-term peptide (lane 2), GST-C-term peptide (lane 3), GST-ΔUbi peptide (lane 4), GST-Bag-1(202–269) peptide (lane 5) and GST (lane 6). The beads were washed and the bound proteins were separated by 10% SDS-PAGE and subjected to Western blotting using antibodies directed against GRP78 or GST. […] F. Clonogenic assay of the Bag-1 peptides expressed in 22Rv.1 cells. Cells transfected with the indicated constructs were selected in medium containing neomycin and the colonies formed were quantified. Shown are the mean value ±SEM of at least three independent experiments using three different plasmid preparations (*p<0.05). […] Six-week old athymic nude mice were injected subcutaneously on both flanks with 5×10^6 cells of each stable clone. Tumor size was measured once per week using a caliper and expressed as tumor volume in mm^3. Shown are the tumor volumes of clones transfected with the N-terminal peptide (G), the C-terminal peptide (H) and the ΔUbi peptide (I). Each point represents the mean volume and standard deviation of at least 5 to 10 tumors.
(§1) Figure 6 Selectivity of action of the Bag-1 peptide. A Amino acid sequence of the 19mer peptide and its deletion mutants. B GST pull-down assay performed incubating 400 µg of 22Rv.1 cell lysate and 25 µg of GST-fused deletion mutants of the 19mer peptide. After the pull-down experiment, Western blots were carried out with anti-GRP78/BiP and GST antibodies. C. Fluorescence polarization (FP) assays with a 10 nM FITC-labeled 7-mer Bag-1 peptide and dilutions of the GST-fused substrate binding domain of GRP78 in 60 µl of Tris-GSH buffer (50 mM Tris, 10 mM reduced glutathione and 0.1% BSA, pH 8.0). Triplicate samples were measured after 5 h of incubation at room temperature with an Infinite F-200 reader (Tecan) with excitation at 490 nm and emission at 535 nm. Binding constants were determined from three independent experiments using non-linear regression in Sigma Plot 10.0. D. Competition assays with a complex of 10 nM of FITC-labeled Bag-1 7-mer peptide and 0.75 mg/ml GST-fused GRP78 substrate binding domain was measured against a dilution series from 100 µM to 0.1 nM of wild-type Bag-1 7-mer peptide (filled line) or triple mutant peptide (dotted line) in 40 µl of Tris-GSH buffer. FITC-peptide and the FITC-peptide-protein complex were used as controls. Fluorescence polarization was determined as described above and IC50 values were determined in Sigma Plot. […]

For test [1], the system named is unfolded protein response in 22Rv.1 cells. The experiment in a line: UPR modulation, Western blot / PCR in 22Rv.1 cells. It counts as cell-based. As for the experimental part: Unless otherwise stated, stable transfection was carried out in 22Rv.1 or BPH-1 cells with 10 µg of plasmid DNA using FuGene 6™ (Roche Diagnostics Mannheim, Germany) Stably transfected 22Rv.1 cells were selected with 0.8 mg/ml while BPH-1 cell clones were selected with 1.2 mg/ml G418. LNCaP, PC3, DU145, PNT-2 and RWPE-1 cell clones were selected with 1 mg/ml G418. Specific downregulation of GRP78 expression was achieved by transfecting siRNA-duplexes (GRP78∶5′-[…]-3′) twice in 72 h using HiPerfect™ (Qiagen Hilden, Germany). siRNA against GFP (5′-[…]-3′) was used as a control. Western blot analysis was performed as previously described.
Figure 3 The Bag-1 peptide modulates the UPR and sensitizes 22Rv.1 cells to ER-stress. A. UPR modulation upon Bag-1 peptide overexpression. Pooled clones of 22Rv.1 cells transfected with pcDNA3.1-HA-Bag-1 68 amino acid peptide or an empty expression vector were treated with 300 nM thapsigargin (TG) for the indicated time points. Cells were lysed and subjected to Western blot analysis using the indicated antibodies or phospho-specific antibodies. B. The Bag-1 peptide sensitizes 22Rv.1 cells to ER-stress induced apoptosis. Pooled clones of 22Rv.1 transfected with the Bag-1 peptide or the empty expression vector were treated with thapsigargin (TG) or glucose-starved (GS) for 24 h. The cells were lysed and subjected to Western blot analysis using anti-PARP and caspase 4 specific antibodies. Anti-HA antibody was used to detect the HA-Bag-1 peptide. […] C. […] Pooled clones of 22Rv.1 expressing HA-tagged Bag-1 peptide or an empty expression vector were transfected with GRP78/BiP siRNA or control GFP siRNA. The cells were lysed and Western blot was carried out with anti-PARP, anti-GRP78 and anti-HA antibodies. β-actin antibody was used to determine the level of protein loaded on the gel.
(§2) A. Real time PCR analysis of ATF6 gene expression following thapsigargin (300 nM) treatment for the indicated time points in 22Rv.1 cell clones with empty vector control (open bars) and peptide-expressing clones (filled bars). The RNA was extracted using PeqGold RNA pure (PeqLab, Germany) kit according to manufacturer’s instructions. For gene expression analysis, the following primers were used: Rib36 forward 5′-[…]-3′; reverse 5′-CCGGATATGAGGCAGCAG-3′; ATF6 forward 5′-[…]-3′; reverse 5′-[…]-3′. Each bar represents the mean of three independent experiments ± SEM. *p<0.05. B. Western blot analysis of ATF6 and its cleaved product (cATF6) in LNCaP cells stably expressing the empty vector control or the Bag-1 peptide. Anti-ATF6 specific antibody and an anti-HA specific antibody were used for the Western blot. β-actin antibody was used to determine equal loading control. Mouse monoclonal anti-ATF6 antibody was purchased from Imgenex (Hamburg, Germany), mouse monoclonal anti-HA antibody (HA.11 clone 16B12) was purchased from Covance (Munich, Germany) and anti-β-actin antibody was purchased from Abcam (Cambridge, UK). (TIF) Click here for additional data file.
Supplementary file pone.0045690.s004.tif: Figure S4 The Bag-1 peptide induces GCN2 phosphorylation. 22Rv.1 cells stably expressing the empty vector control or the Bag-1 peptide were treated with thapsigargin (300 nM) for 16 h and subjected to Western blot analysis using anti-phospho-GCN2, GCN2 and HA-specific antibodies. The filters used in this experiment for the GCN2 signals are the same filters used in Figure 3A. The HA-Bag-1 peptide and the β-actin signals are therefore identical to that of Figure 3A. (TIF) Click here for additional data file.

For test [2], the system named is LNCaP prostate cancer cells. The experiment in a line: ATF6 Western blot in LNCaP cells. It counts as cell-based. The note with it: thapsigargin. As for the experimental part:
as §2

Test [3] addresses T1, GST-fused GRP78 substrate binding domain (Homo sapiens, UniProt P11021).
T1 construct: GRP78-SBD (GRP78 409–651); made in house
The experiment in a line: Fluorescence polarization competition assay. The note with it: displacement of 10 nM FITC-labeled Bag-1 7-mer from 0.75 mg/ml GST-GRP78 SBD; competitor 100 µM to 0.1 nM, Tris-GSH buffer. As for the experimental part: Fluorescence polarization assays were carried out using an Infinite F-200 reader (Tecan) with excitation at 490 nm and emission at 535 nm.
as §1, with “[…] The colonies were stained” for “FITC-peptide”, “quantified.” for “the FITC-peptide-protein complex were used as controls. Fluorescence polarization was determined as described above and IC50 values were determined in Sigma Plot.”
On the technique in general: Fluorescence polarisation rises when a labelled molecule tumbles more slowly, as on binding a larger partner.

Test [4] deals with T2, GST-fused GRP78-SBD (GRP78 409-651) (UniProt P11021 409-651).
T2 construct: Used on beads in pull-downs and in solution (GST kept) in fluorescence polarisation; also called GST-GRP78(SBD); source: bacterially purified GST fusion (pGEX4T.1)
The experiment in a line: fluorescence polarisation; competition: complex of 10 nM FITC-labeled 7-mer peptide and 0.75 mg/ml GST-fused GRP78 SBD against 100 µM to 0.1 nM unlabeled peptide in Tris-GSH buffer. The conditions noted are these: both partners purified.

Test [5] concerns the target T2, GST-fused GRP78-SBD (GRP78 409-651). The experiment in a line: fluorescence polarisation; 10 nM FITC-labeled 7-mer peptide with dilutions of GST-fused GRP78 SBD in Tris-GSH buffer (50 mM Tris, 10 mM reduced glutathione, 0.1% BSA, pH 8.0), 5 h at room temperature. The conditions noted are these: both partners purified.

T2 sequence (P11021 409-651): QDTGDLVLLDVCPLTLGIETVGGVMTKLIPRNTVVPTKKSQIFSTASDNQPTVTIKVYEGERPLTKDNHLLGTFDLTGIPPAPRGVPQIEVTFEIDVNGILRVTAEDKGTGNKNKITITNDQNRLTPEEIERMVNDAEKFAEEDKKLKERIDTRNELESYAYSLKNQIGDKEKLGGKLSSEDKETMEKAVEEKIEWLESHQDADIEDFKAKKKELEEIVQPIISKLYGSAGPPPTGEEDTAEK
T1 sequence (P11021 409-651): as above

For the molecule “19-mer mutant: 202–220 amino acid peptide with mutated core (VML exchanged with alanine residues) (TPLSALGIQDGCRAAAIGK; also: HA tag, end not given here)”, in the test with 22Rv.1 cells, the “22Rv.1 growth in clonogenic assay” value is on record as “significantly reduced the ability of the 19 amino acid sequence to inhibit 22Rv.1 cell growth”.
As to `C/C=C(/C)C(=O)O[C@H]1C(C)=C2[C@H]([C@@H]1OC(=O)CCCCCCC)[C@@](C)(OC(C)=O)C[C@H](OC(=O)CCC)[C@@]1(O)[C@H]2OC(=O)[C@@]1(C)O` [thapsigargin, reference compound], the ATF6 expression entry in test [1] (22Rv.1 cells, thapsigargin 300 nM) was “enhanced the expression of this gene”. In test [1] (22Rv.1 vector control cells, 300 nM thapsigargin), the UPR activation result is “all three arms of the UPR were activated”. Besides, the “ATF6 expression (protein level)” value in test [2] is “also seen in LNCaP prostate cancer cells at the protein level”.
As for RAAAIGK [RAAAIGK], the half-inhibitory concentration (IC50) in test [3] was more than 100 µM.

B1: triple mutant Bag-1 7-mer peptide (214RAAAIGK220) (peptide)
chain: RAAAIGK
On to B1, for which the IC50 in test [4] is more than 100 µM.

B2: FITC-labeled 7-mer Bag-1 peptide (214RVMLIGK220) (peptide)
peptide: RVMLIGK
modifications: also: FITC label, place not given here
notes: core peptide of Bag-1, residues 214-220 on Bag-1L numbering; also called FITC-peptide
With B2, the dissociation constant (Kd) in test [5] was determined as 5.7 ± 0.8 µM.

B3: wild-type Bag-1 7-mer peptide (214RVMLIGK220), unlabeled (peptide)
peptide: RVMLIGK
notes: core peptide of Bag-1, residues 214-220 on Bag-1L numbering; also called seven amino acid core peptide
For the molecule B3, the IC50 in test [4] turned out to be 2.6 ± 0.5 µM.

Values taken from PMC3462190, “A Peptidic Unconjugated GRP78/BiP Ligand Modulates the Unfolded Protein Response and Induces Prostate Cancer Cell Death” (PLoS ONE, 2012).
